Results published in ChEMBL document CHEMBL4837247, “Discovery of a Potent Dual SLK/STK10 Inhibitor Based on a Maleimide Scaffold” (J Med Chem, 2021).

Biological target: Serine/threonine-protein kinase 10 (Homo sapiens, UniProt O94804)
Experiment: Inhibition of STK10 (unknown origin) expressed in Sf9 cells assessed as transfer of radiolabelled phosphate group from ATP by reaction biology method

Serine/threonine-protein kinase 10, sequence (O94804 whole entry): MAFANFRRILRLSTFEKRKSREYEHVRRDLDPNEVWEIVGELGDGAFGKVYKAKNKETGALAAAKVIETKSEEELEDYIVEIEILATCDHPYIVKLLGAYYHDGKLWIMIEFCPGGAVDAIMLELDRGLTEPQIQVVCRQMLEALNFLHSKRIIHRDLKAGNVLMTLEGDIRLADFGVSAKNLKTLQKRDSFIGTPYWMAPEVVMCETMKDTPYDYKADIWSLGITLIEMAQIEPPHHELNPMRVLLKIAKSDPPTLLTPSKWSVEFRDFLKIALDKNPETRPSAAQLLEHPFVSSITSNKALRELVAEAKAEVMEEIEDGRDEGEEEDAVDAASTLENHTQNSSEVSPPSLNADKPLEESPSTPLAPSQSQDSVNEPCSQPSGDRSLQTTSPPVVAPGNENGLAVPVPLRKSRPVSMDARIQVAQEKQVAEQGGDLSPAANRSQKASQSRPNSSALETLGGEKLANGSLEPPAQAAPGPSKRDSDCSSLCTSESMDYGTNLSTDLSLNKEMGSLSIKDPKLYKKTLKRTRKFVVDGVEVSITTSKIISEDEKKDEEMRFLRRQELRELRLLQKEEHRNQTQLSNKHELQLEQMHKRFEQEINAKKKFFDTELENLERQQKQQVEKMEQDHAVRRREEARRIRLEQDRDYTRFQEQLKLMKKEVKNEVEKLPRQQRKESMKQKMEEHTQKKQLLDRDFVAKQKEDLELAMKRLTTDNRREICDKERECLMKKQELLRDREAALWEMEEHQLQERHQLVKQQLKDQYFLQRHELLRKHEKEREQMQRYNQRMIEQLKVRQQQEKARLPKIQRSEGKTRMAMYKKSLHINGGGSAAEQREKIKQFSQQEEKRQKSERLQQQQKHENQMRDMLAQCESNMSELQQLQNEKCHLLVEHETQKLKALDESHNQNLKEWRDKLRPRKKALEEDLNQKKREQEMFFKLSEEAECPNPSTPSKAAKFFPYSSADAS

IC50: 99 nM
SMILES: Cn1cc(C2=C(c3cn(CCCSC(=N)N)c4ccccc34)C(=O)NC2=O)c2ccccc21 [BISINDOLYLMALEIMIDE IX]
